Measured values as given in PMC11650360 (Archiv Der Pharmazie, 2024).

Key:
[1] = target: VchCAβ (Vibrio cholerae, UniProt Q9KUD6); experiment: biochemical
[2] = target: VchCAα (Vibrio cholerae, UniProt Q9KMP6); experiment: stopped-flow CO2 hydrase assay; format: biochemical
VchCAα, sequence (Q9KMP6 21-239): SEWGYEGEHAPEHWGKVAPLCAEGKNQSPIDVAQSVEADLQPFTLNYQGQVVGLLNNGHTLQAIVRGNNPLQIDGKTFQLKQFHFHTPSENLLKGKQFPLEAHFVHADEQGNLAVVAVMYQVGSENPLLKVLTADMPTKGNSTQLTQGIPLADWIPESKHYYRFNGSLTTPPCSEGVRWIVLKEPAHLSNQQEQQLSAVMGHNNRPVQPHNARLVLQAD

VchCAβ, sequence (Q9KUD6 1-222): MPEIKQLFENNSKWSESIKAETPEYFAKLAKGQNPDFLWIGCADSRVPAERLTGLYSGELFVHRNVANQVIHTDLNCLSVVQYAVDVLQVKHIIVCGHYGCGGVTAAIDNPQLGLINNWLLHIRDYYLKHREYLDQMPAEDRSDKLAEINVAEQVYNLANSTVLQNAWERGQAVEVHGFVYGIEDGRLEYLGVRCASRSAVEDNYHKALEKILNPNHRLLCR

| SMILES | Ki [1] [µM] | Ki [2] [µM] |
| --- | --- | --- |
| NS(=O)(=O)CCCn1cc(COc2ccccc2)nn1 [compound 1, 1] | 4.16 | 29.1 |
| Cc1ccc(NC(=O)NCc2cn(CCCCS(N)(=O)=O)nn2)cc1 [compound 19, 19] | 2.86 | 18.3 |
| COc1cccc(NC(=O)NCc2cn(CCCS(N)(=O)=O)nn2)c1 [compound 9, 9] | 1.72 | 17.5 |
| COc1cccc(NC(=O)NCc2cn(CCCCS(N)(=O)=O)nn2)c1 [compound 22, 22] | 1.97 | 14 |
| Cc1ccc(NC(=O)NCc2cn(CCCS(N)(=O)=O)nn2)cc1 [compound 6, 6] | 0.82 | – |
| COc1ccc(OCc2cn(CCCCS(N)(=O)=O)nn2)cc1 [compound 16, 16] | 6.13 | 28.7 |
| NS(=O)(=O)CCCCn1cc(CNC(=O)Nc2ccc(F)cc2)nn1 [compound 18, 18] | 3.41 | 16.9 |
| NS(=O)(=O)CCCn1cc(CNC(=O)Nc2ccc(F)cc2)nn1 [compound 5, 5] | 0.93 | 13.4 |
| COc1ccc(OCc2cn(CCCS(N)(=O)=O)nn2)cc1 [compound 3, 3] | 2.96 | 16.5 |
| NS(=O)(=O)CCCCn1cc(CNC(=O)Nc2ccc(C(F)(F)F)cc2)nn1 [compound 20, 20] | 3 | 16.8 |
| NS(=O)(=O)CCCn1cc(CNC(=O)Nc2ccc(C(F)(F)F)cc2)nn1 [compound 7, 7] | 0.67 | 11.2 |
| NS(=O)(=O)CCCCn1cc(COc2ccccc2)nn1 [compound 14, 14] | 6.91 | 34.4 |
